Results: patent US20050256073A1, “Immunostimulatory viral RNA oligonucleotides” (Coley Pharmaceutical Group, Inc., priority 2004, published 2005)
Values joined by “and” are separate entries in the source; they are usually repeats but may differ in a detail not shown here. Identical values can stand only once. Like-named read-outs stand apart in the source and are kept apart here.

Legend:
Assay type in all cases: cell-based
human PBMC [1] = conditions: for EC50: read-out: TNF production EC50
human PBMC [2] = conditions: for EC50: read-out: IFN-γ production EC50
human PBMC [3] = conditions: for EC50: read-out: IFN-α production EC50
human CD14+ cells = test: CD80 expression on human CD14+ cells (FACS)
[4] = test system: human CD19+ cells (B cells); test: CD80 expression on human CD19+ cells (FACS)
human PBMC [5] = test system: human PBMC
human TLR9 = target: T1, human TLR9 (Homo sapiens, UniProt Q9NR96); test: NF-κB-luciferase readout in HEK293 cells stably transfected with human TLR9
T1 construct: expressed in transfected cells; host or cells: HEK293 cells, stably transfected, with NF-κB-luciferase reporter construct
T1 sequence (Q9NR96 26-1032): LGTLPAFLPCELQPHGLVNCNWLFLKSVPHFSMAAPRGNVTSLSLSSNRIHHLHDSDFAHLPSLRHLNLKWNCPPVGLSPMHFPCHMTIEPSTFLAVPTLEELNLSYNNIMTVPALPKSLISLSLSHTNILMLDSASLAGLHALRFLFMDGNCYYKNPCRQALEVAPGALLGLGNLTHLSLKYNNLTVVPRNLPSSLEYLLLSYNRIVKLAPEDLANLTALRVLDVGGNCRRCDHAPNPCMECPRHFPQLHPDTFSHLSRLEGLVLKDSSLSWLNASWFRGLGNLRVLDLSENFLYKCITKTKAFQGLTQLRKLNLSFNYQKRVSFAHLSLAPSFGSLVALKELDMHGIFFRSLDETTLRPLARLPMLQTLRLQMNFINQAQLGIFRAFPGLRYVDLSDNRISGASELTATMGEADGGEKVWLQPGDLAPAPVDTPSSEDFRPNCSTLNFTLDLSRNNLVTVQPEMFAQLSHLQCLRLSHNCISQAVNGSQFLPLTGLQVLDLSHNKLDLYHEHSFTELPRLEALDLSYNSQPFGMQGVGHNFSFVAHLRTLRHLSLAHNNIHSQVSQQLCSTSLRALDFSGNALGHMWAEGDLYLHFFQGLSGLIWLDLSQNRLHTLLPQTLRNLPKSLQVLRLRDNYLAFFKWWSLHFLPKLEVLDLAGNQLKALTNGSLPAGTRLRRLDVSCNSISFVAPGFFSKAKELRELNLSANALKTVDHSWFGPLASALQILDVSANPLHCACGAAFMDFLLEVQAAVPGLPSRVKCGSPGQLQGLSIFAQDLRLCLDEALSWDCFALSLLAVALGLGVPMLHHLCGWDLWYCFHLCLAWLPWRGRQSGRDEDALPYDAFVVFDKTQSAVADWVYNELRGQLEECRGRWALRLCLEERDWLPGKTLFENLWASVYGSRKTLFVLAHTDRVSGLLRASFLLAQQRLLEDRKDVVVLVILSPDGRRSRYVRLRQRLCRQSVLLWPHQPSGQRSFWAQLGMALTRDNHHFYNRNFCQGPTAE
Procedure: (§1) Emitted light varied in direct proportion to NF-κB activation.
(§2) The effect of immunostimulatory oligonucleotide was assessed by titrating the amount or concentration of oligonucleotide concentration in a given experiment. The effect of immunostimulatory oligonucleotide concentration was expressed in terms of EC50 (concentration at which immunostimulatory oligonucleotide was 50 percent effective compared to maximum effect). The potency of a given immunostimulatory oligonucleotide was expressed as maximum stimulation index (SI max; the maximum fold increase in signal over that of untreated control) or maximum activity.
(§3) Stimulation and measurement of signal transduction in HEK293 cells stably transfected with either human TLR8 or human TLR9 and an NF-κB-luciferase reporter construct was performed essentially as described in Example 1. […] Results are expressed in terms of EC50 in μM and stimulation index (SI)=fold induction of NF-κB-luciferase activity in ligand-pulsed cells.

human TLR8 = target: T2, human TLR8 (Homo sapiens, UniProt Q9NR97); test: NF-κB-luciferase readout in HEK293 cells stably transfected with human TLR8
T2 construct: expressed in transfected cells; host or cells: HEK293 cells, stably transfected, with NF-κB-luciferase reporter construct
T2 sequence (Q9NR97 27-1041): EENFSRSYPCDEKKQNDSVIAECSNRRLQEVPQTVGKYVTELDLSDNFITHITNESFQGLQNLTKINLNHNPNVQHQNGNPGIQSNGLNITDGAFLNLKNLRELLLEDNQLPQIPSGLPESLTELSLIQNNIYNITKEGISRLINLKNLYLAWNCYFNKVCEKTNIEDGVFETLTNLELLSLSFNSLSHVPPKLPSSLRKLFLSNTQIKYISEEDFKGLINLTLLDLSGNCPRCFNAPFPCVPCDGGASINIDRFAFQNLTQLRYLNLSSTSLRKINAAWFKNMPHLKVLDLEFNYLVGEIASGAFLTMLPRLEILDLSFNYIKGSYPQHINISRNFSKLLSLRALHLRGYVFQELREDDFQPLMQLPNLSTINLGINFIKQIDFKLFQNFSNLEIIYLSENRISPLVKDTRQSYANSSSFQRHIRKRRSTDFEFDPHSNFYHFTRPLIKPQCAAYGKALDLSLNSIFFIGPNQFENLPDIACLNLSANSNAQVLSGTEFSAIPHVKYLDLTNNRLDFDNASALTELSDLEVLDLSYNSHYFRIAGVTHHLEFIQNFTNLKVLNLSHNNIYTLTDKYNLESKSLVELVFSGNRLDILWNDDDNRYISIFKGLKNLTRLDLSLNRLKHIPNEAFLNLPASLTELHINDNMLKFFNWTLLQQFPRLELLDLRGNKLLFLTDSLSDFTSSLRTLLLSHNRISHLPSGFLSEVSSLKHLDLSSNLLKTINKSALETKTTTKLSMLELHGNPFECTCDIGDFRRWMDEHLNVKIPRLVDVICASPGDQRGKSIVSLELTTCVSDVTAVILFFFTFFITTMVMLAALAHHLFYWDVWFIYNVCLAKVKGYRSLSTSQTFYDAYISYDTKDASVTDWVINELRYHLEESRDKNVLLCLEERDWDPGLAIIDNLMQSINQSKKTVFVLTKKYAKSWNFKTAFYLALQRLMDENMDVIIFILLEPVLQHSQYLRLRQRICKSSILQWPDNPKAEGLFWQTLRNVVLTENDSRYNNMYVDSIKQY
Procedure: as §1, §2, §3

Substance	TNF production max activity (human PBMC [1])	EC50 (human PBMC [1])	IFN-γ production max activity (human PBMC [2])	IFN-α production max activity (human PBMC [3])	EC50 (human PBMC [3])	also measured
AAUGGUUUGUUUGUCUUCGU [ORN 7]	7500 pg/mL and 10000 pg/mL and 7000 pg/mL and 8000 pg/mL and 5000 pg/mL	357 nM and 325 nM and 544 nM and 468 nM and 424 nM	50000 pg/mL and 80000 pg/mL and 65000 pg/mL	–	–	EC50 (human PBMC [2]): 490 nM and 642 nM and 566 nM
AGCGAAAGCAGGUCAAUUAU [ORN 5, reference compound]	0 pg/mL	–	0 pg/mL	0 pg/mL	–	–
AUAAUUGACCUGCUUUCGCU [ORN 4]	5750 pg/mL and 8000 pg/mL and 5000 pg/mL	412 nM and 400 nM and 559 nM and 512 nM and 471 nM	–	–	–	induction of co-stimulatory molecule CD80 on CD14+ cells (human CD14+ cells): induce; EC50 (human PBMC [2]): 637 nM and 490 nM and 564 nM; induction of co-stimulatory molecule CD80 on CD19+ cells (B cells) [4]: induce; profile of immunostimulation (cytokines induced) (human PBMC [5]): very broad, including induction of TNF-α, IL-6, IL-12 p40, IFN-α, and IFN-γ
CUUACCCAACUUUGUUUGGU [ORN 2]	9500 pg/mL and 8000 pg/mL and 13000 pg/mL and 10000 pg/mL and 7000 pg/mL	–	50000 pg/mL and 40000 pg/mL and 45000 pg/mL	–	34 nM and 68 nM and 60 nM and 38 nM and 50 nM	EC50 (human PBMC [2]): 514 nM and 529 nM and 522 nM
GCCACCGAGCCGAAGGCAAC [ORN 21, reference compound]	0 pg/mL	–	–	0 pg/mL	–	immunostimulatory activity (in words) (human PBMC [5]): no immunostimulatory activity
GCCACCGAGCCGAUUGUACC [ORN 22]	23833 pg/mL	244 nM	–	2417 pg/mL	1110 nM	–
GCCACCGAGCCGAUUUUACC [ORN 23]	25500 pg/mL	228 nM	–	2333 pg/mL	41 nM	–
GGGGAUGAUGTUGTGGGGGGG [ORN 20]	0 pg/mL	–	–	0 pg/mL	–	–
GGGGAUGAUGUUGUGGGGGGG [ORN 19]	37667 pg/mL	415 nM	–	2867 pg/mL	129 nM	–
TCGTCGTTTTCGGCGCGCGCCG [CpG ODN 2395, reference compound]	–	–	–	–	–	induction of co-stimulatory molecule CD80 on CD19+ cells (B cells) [4]: induce
TUGTUGTTTTGTUGTTTTGTUGTT [ORN 16]	56667 pg/mL	234 nM	–	2267 pg/mL	1100 nM	–
TUGTUGTTTTUGGUGGUUGUUG [ORN 18]	61667 pg/mL	200 nM	–	2617 pg/mL	79.5 nM	–
UCGUCGUUUUGUCGUUUUGUCGUU [ORN 14]	53833 pg/mL	78 nM	–	2783 pg/mL	37.3 nM	–
UGUUUUUUCUCUUGUUUGGU [ORN 3]	–	419 nM and 421 nM and 470 nM and 337 nM and 412 nM	60000 pg/mL and 70000 pg/mL and 65000 pg/mL	–	–	induction of co-stimulatory molecule CD80 on CD14+ cells (human CD14+ cells): induce; EC50 (human PBMC [2]): 528 nM and 606 nM and 567 nM; induction of co-stimulatory molecule CD80 on CD19+ cells (B cells) [4]: induce
UUGAUCUGGUUGUUAAGCGU [ORN 6]	8750 pg/mL and 10000 pg/mL and 7000 pg/mL and 8000 pg/mL	462 nM and 409 nM and 604 nM and 498 nM and 493 nM	60000 pg/mL and 30000 pg/mL and 45000 pg/mL	–	–	EC50 (human PBMC [2]): 635 nM and 586 nM and 611 nM
UUGUACGCAUUUUUUCGCGU [ORN 1]	8500 pg/mL and 8000 pg/mL and 10000 pg/mL	494 nM and 417 nM and 473 nM and 529 nM and 478 nM	50000 pg/mL and 60000 pg/mL and 55000 pg/mL	–	–	EC50 (human PBMC [2]): 592 nM and 517 nM and 555 nM
UUGUUGUUUUGUUGUUUUGUUGUU [ORN 15]	60000 pg/mL	40 nM	–	2500 pg/mL	5 nM	–
UUGUUGUUUUUGGUGGUUGUUG [ORN 17]	70000 pg/mL	57.5 nM	–	3000 pg/mL	15.2 nM	–
dNdNdNdNdNdNUUGUGdNdNdNdNdNdNdN [ORN 31]	18000 pg/mL	4890 nM	–	766.7 pg/mL	3870 nM	–
dNdNdNdNdNdNUUGUdNdNdNdNdNdNdNdN [ORN 32]	30000 pg/mL	7980 nM	–	666.7 pg/mL	4560 nM	–
dNdNdNdNdNdNUUGdNdNdNdNdNdNdNdNdN [ORN 33]	0 pg/mL	–	–	0 pg/mL	–	–
dNdNdNdNdNdNdNUGdNdNdNdNdNdNdNdNdN [ORN 34]	0 pg/mL	–	–	0 pg/mL	–	–
dTdCdGdTdCdGdTdTdT 2′-5′ (GUUGUGU) dAdAdT [ORN 13]	0 pg/mL	–	0 pg/mL	–	15 nM and 25 nM	TLR9 stimulation (in words) (human TLR9): maintained; EC50 (human TLR9; Table 11, HEK293, NF-κB-luciferase): 110 nM; TLR8 stimulation (in words) (human TLR8): lost
